Test results from paper PMC6151589, “Identification of Optically Active Pyrimidine Derivatives as Selective 5-HT2C Modulators” (Molecules : A Journal of Synthetic Chemistry and Natural …, 2017).

Key:
Test in all cases: biochemical
Design in all cases: species or system HEK293 or CHO; competitive radioligand binding on crude membranes, filtration and scintillation counting
5-HT1A = molecular target: T1, 5-HT1A (Homo sapiens, UniProt P08908); conditions: for Ki: read-out: Ki (nM), 1A
T1 construct: gene HTR1A; human recombinant receptor, crude membranes of HEK293 or CHO cells
T1 sequence (P08908 1-422): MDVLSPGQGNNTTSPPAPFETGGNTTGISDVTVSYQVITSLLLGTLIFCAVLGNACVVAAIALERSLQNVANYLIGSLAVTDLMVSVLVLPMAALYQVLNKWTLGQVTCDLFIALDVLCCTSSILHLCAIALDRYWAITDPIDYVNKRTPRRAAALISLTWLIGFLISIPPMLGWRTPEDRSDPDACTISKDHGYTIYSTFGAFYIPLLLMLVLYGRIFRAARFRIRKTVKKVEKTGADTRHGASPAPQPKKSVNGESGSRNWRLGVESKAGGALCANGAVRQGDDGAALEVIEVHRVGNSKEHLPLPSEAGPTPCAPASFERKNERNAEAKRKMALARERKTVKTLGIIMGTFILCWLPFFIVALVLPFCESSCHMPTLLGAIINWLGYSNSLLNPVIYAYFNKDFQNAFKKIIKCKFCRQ
Method: (§1) Eleven dilutions (5 × assay concentration) of the test and reference compounds (Table S1) were prepared in standard binding buffer (50 mM tris(hydroxymethyl)-aminomethane-HCl (Tris-HCl), 10 mM MgCl2, 1 mM ethylenediaminetetraacetate (EDTA), pH 7.4) by serial dilution: 0.05 nM, 0.5 nM, 1.5 nM, 5 nM, 15 nM, 50 nM, 150 nM, 500 nM, 1.5 μM, 5 μM, and 50 μM. The radioligand (Table S3) was diluted to five times the assay concentration in standard binding buffer. Aliquots ([…]) of the radioligand were dispensed into the wells of a 96-well plate containing […] of standard binding buffer. Triplicate aliquots ([…]) of the test and reference compound dilutions were then added. Finally, crude membrane fractions ([…]) of cells (HEK293 or CHO) expressing human recombinant receptors were dispensed into each well. A total of […] of the reaction mixtures was incubated at room temperature and shielded from light for 1.5 h, and was then harvested by rapid filtration onto Whatman GF/B glass fiber filters presoaked with 0.3% polyethyleneimine, by using a 96-well Brandel harvester (Gaithersburg, MD, USA). Four rapid washes were performed with chilled standard binding buffer (500 mL) to decrease nonspecific binding. Filters were placed in 6 mL scintillation tubes and allowed to dry overnight. The next day, 4-mL of EcoScint scintillation cocktail (National Diagnostics) was added to each tube. The tubes were capped, labeled, and counted by […] scintillation counting. The filter mats were dried, and the scintillant was melted onto the filters, then the radioactivity retained on the filters was counted in a Microbeta scintillation counter. The IC50 values were obtained by using the Prism 4.0 program (GraphPad Software, La Jolla, CA, USA) and were converted into Ki values. Each compound was tested at least in triplicate. With each enantiomer (R)- or (S)-5d and 5e in hand, the optically active pyrimidine derivatives 4d–4e were synthesized following the same reaction sequences (Scheme 3). Finally, compounds 4d and 4e were assessed for their binding affinity to 5-HT2 receptor subtypes by radioligand binding assays. […] A further evaluation of these compounds for other 5-HT receptor subtypes was also performed and is provided in the supplementary data (Table S2). […] Considering the potencies and selectivities of 4, we can conclude that (R,R)-4e would be a viable candidate for a selective 5-HT2C modulator.

5-HT5A = molecular target: T2, 5-HT5A (Homo sapiens, UniProt P47898)
T2 construct: gene HTR5A; human recombinant receptor, crude membranes of HEK293 or CHO cells
Method: as §1

5-HT1D = molecular target: T3, 5-HT1D (Homo sapiens, UniProt P28221)
T3 construct: gene HTR1D; human recombinant receptor, crude membranes of HEK293 or CHO cells
Method: as §1

5-HT2B = molecular target: T4, 5-HT2B (Homo sapiens, UniProt P41595)
T4 construct: gene HTR2B; human recombinant receptor; crude membrane fractions of transfected HEK293 or CHO cells
Method: as §1

5-HT2C = molecular target: T5, 5-HT2C (Homo sapiens, UniProt P28335)
T5 construct: gene HTR2C; human recombinant receptor; crude membrane fractions of transfected cells (CHO-K1; HEK293 or CHO)
T5 sequence (P28335 33-458): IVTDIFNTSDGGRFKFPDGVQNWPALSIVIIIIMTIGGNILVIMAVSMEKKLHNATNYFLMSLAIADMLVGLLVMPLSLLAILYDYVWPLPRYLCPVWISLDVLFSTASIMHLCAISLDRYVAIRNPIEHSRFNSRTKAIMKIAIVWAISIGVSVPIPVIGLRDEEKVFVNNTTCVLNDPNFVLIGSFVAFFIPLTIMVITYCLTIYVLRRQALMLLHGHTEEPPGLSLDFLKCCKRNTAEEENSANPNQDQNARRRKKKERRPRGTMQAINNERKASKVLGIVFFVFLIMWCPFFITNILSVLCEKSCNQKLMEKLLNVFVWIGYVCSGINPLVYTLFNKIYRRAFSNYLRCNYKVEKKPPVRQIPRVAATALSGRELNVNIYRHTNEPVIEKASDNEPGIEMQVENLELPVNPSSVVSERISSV
Method: as §1

T3 sequence (P28221 whole entry): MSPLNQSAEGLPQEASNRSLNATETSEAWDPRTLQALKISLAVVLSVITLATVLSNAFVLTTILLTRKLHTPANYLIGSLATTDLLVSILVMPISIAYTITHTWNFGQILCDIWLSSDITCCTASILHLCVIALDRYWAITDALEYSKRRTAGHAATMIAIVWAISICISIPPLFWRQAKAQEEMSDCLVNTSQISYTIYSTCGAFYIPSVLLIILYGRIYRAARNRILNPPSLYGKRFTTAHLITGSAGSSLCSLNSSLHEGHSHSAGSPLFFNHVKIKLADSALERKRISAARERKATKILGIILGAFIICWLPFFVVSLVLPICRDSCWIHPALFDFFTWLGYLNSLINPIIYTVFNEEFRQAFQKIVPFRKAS
T2 sequence (P47898 whole entry): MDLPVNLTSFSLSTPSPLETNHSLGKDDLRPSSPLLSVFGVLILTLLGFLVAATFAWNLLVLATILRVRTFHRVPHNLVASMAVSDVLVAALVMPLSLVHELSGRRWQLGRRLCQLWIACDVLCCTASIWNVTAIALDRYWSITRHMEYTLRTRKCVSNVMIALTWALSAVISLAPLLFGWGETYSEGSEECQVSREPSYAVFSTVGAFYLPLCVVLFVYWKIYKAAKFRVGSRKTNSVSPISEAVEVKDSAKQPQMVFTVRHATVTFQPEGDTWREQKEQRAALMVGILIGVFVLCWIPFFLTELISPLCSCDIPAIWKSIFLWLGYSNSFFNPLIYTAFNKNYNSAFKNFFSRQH
T4 sequence (P41595 whole entry): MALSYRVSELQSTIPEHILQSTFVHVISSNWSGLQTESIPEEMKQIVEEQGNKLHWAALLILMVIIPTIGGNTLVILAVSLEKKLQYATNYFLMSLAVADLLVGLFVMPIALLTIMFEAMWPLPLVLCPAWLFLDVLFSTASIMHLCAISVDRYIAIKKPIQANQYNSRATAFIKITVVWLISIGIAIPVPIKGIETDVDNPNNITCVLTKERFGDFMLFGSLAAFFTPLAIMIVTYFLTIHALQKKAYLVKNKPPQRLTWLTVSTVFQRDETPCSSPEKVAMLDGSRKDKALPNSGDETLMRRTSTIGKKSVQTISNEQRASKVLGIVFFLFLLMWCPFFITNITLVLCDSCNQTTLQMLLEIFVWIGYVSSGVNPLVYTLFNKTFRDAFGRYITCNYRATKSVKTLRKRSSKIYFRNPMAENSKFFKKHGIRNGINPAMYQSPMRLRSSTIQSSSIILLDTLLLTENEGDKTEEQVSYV

| SMILES | inhibition at 10 µM (5-HT1A) [%] | Ki (5-HT1A) [nM] | inhibition at 10 µM (5-HT5A) [%] | inhibition at 10 µM (5-HT1D) [%] | inhibition at 10 µM (5-HT2B) [%] | inhibition at 10 µM (5-HT2C) [%] | Ki (5-HT1D; read-out: Ki (nM), 1D) [nM] |
| --- | --- | --- | --- | --- | --- | --- | --- |
| C[C@@H]1CNCCN1c1ncc(F)c(O[C@H](C)c2cccc(F)c2)n1 [(R,R)-4d, 5-Fluoro-4-((R)-1-(3-fluorophenyl)ethoxy)-2-((R)-2-methylpiperazin-1-yl)pyrimidine] | 78 | 98 | 28.1 | -6.8 | 100 | 98.5 |  |
| C[C@@H]1CNCCN1c1ncc(F)c(O[C@H](C)c2ccc(F)cc2)n1 [(R,R)-4e, 5-Fluoro-4-((R)-1-(4-fluorophenyl)ethoxy)-2-((R)-2-methylpiperazin-1-yl)pyrimidine] | 10 |  | 26.7 | -7.7 | 99.6 | 94.2 |  |
| C[C@H](Oc1nc(N2CCNC[C@H]2C)ncc1F)c1cccc(F)c1 [(S,R)-4d, 5-Fluoro-4-((S)-1-(3-fluorophenyl)ethoxy)-2-((R)-2-methylpiperazin-1-yl)pyrimidine] | 67.7 | 806 | 22.8 | 10.3 |  | 97.7 |  |
| C[C@H](Oc1nc(N2CCNC[C@H]2C)ncc1F)c1ccc(F)cc1 [(S,R)-4e, 5-Fluoro-4-((S)-1-(4-fluorophenyl)ethoxy)-2-((R)-2-methylpiperazin-1-yl)pyrimidine] | 67.3 | 1120 | 5.2 | 40.4 | 95.3 | 97.8 |  |
| C[C@H](Cc1cccc(F)c1)Oc1nc(N2CCNC[C@H]2C)ncc1F [compound 3, pyrimidine analogue 3] | 89 | 353 | 37.4 | 78.3 | 97.4 | 98.2 | 542 |
